We go through 4 compounds from article PMC3032881 (Molecular Immunology, 2011).

Assay [1] addresses HLA A*0201 on TAP deficient T2 cells (Homo sapiens, UniProt P04439, D140Y/D185E/D98H/E176V/E277Q/G131W/G231S/I119V/I121R/I166T/I218V/L300P/L318F/N151K/N90K/P208A/P217A/Q86G/Q94H/R138H/R169H/T345S). The experiment in a line: T2-binding assay (cell surface pMHCI stabilization, FACS). The class given is cell-based.
The target in assay [2] is T1, HLA A*0201 (soluble recombinant pMHCI) (Homo sapiens, UniProt P04439, D140Y/D185E/D98H/E176V/E277Q/G131W/G231S/I119V/I121R/I166T/I218V/L300P/L318F/N151K/N90K/P208A/P217A/Q86G/Q94H/R138H/R169H/T345S).
T1 construct: made in house
The experiment in a line: Real time SPR pMHC stability assay. In kind it is binding. As to conditions: pMHCI half-life converted from Langmuir dissociation analysis; BIAcore 3000, CM5 chip, ∼500 RUs, 10 μl/min, 15,000 s.

SMILES strings stand for the structures. Peptide text beside a SMILES is read from it.

In the case of `CC[C@H](C)[C@H](NC(=O)[C@H](Cc1c[nH]c2ccccc12)NC(=O)[C@H](CCSC)NC(=O)[C@H](CC(C)C)NC(=O)[C@H](CC(C)C)NC(=O)[C@@H](N)CO)C(=O)N[C@H](C(=O)N[C@@H](CCC(N)=O)C(=O)N[C@@H](CC(C)C)C(=O)O)[C@@H](C)O`, the EC50 in assay [1] was 43.2 µM.

In assay [1], `CC(C)C[C@H](NC(=O)[C@@H](N)C(C)C)C(=O)N[C@@H](CO)C(=O)N[C@@H](CC(N)=O)C(=O)N[C@@H](CC(=O)O)C(=O)N[C@H](C(=O)N[C@@H](CS)C(=O)N[C@@H](C)C(=O)N[C@@H](CCC(N)=O)C(=O)N[C@H](C(=O)O)C(C)C)C(C)C` gave a 50% effective concentration (EC50) of 23.9 µM.

In assay [1], `CC[C@H](C)[C@H](NC(=O)[C@@H](N)C(C)C)C(=O)N[C@@H](CO)C(=O)N[C@@H](CC(N)=O)C(=O)N[C@@H](CC(=O)O)C(=O)N[C@H](C(=O)N[C@@H](CS)C(=O)N[C@@H](C)C(=O)N[C@@H](CCC(N)=O)C(=O)N[C@H](C(=O)O)C(C)C)C(C)C` (H-VISNDVCAQV-OH) gave an EC50 of 50 µM.

With `CC(C)C[C@H](NC(=O)[C@@H](N)Cc1ccc(O)cc1)C(=O)N[C@@H](CCC(=O)O)C(=O)N1CCC[C@H]1C(=O)NCC(=O)N1CCC[C@H]1C(=O)N[C@H](C(=O)N[C@@H](C)C(=O)O)C(C)C` (H-YLEPGPVA-OH; N-terminus and C-terminus assumed), the “Half-life” value in assay [2] was 5.8 h.
